# Legend:
# [1] = target: Glutamate NMDA receptor (Rattus norvegicus) (UniProt P35439+Q00959+Q00960+Q00961+Q62645+Q8VHN2+Q9R1M7); test: (§1) Percent inhibition at the PCP site for displacement of [3H]TCP in rat brain homogenates at […]; assay type: tissue-based
# [2] = Partition coefficient determined using standard shake flask method at pH 7.4.; assay type: physicochemical; details: octanol/water
# Glutamate NMDA receptor [3] = test: Evaluated for their affinity at the PCP site for displacement of [3H]TCP in rat brain homogenates; assay type: tissue-based
# Rattus norvegicus [4] = species on record: Rattus norvegicus; test: Compound was evaluated for the inhibition of glutamate-stimulated calcium influx (GSCI); (N=1); assay type: functional
# Mus musculus = test: Compound was evaluated for in vivo activity assessed by prevention of NMDA-induced lethality in mice (N= 10 animals); assay type: functional
# Rattus norvegicus [5] = species on record: Rattus norvegicus; test: Compound was evaluated for the inhibition of glutamate-stimulated calcium influx (GSCI); assay type: functional
# Glutamate NMDA receptor [6] = test: as §1; assay type: tissue-based
structure (smiles),measurement,setting,value
CNC12CCCCC1Cc1cc(OC)ccc12 (centres undefined),inhibition,[1],11%
same,logD,[2],0.21
CNC12CCCCC1c1ccccc1C2 (centres undefined),inhibition,[1],0%
same,logD,[2],0.62
NC12CCCCCC1Cc1ccccc12 (centres undefined),IC50,Glutamate NMDA receptor [3],304 nM
C=C1c2ccccc2C2(NC)CCCCC12 (centres undefined),logD,[2],0.76
same,IC50,Glutamate NMDA receptor [3],528 nM
CC[C@]1(c2ccccc2)OC[C@H]([C@@H]2CCCCN2)O1 [ETOXADROL],IC50,Glutamate NMDA receptor [3],107 nM
c1ccc(CNC23CCCCC2Cc2ccsc23)cc1 (centres undefined),inhibition,[1],10%
CNC12CCC(C)CC1Cc1ccccc12 (centres undefined),IC50,Glutamate NMDA receptor [3],95 nM
c1ccc(CNC23CCCCCC2Cc2ccccc23)cc1 (centres undefined),inhibition,[1],6%
CNC12CCCCC1Cc1ccc(OC)cc12 (centres undefined),IC50,Rattus norvegicus [4],160 nM
same,ED50,Mus musculus,0.51 mg/kg
same,logD,[2],0.65
same,IC50,Glutamate NMDA receptor [3],22 nM
CNC12CCCCC1Cc1ccc(O)cc12 (centres undefined),IC50,Rattus norvegicus [4],140 nM
same,ED50,Mus musculus,0.99 mg/kg
same,IC50,Glutamate NMDA receptor [3],16.5 nM
CNC[C@@H]1CC[C@@]2(NC)c3ccccc3C[C@H]2C1,inhibition,[1],0%
same,logD,[2],-2.65
CCN[C@]12CCCC[C@H]1Cc1ccccc12,IC50,Rattus norvegicus [4],61 nM
same,ED50,Mus musculus,0.2 mg/kg
same,IC50,Glutamate NMDA receptor [3],55.2 nM
CNC12CCCC1Cc1ccccc12 (centres undefined),IC50,Glutamate NMDA receptor [3],350 nM
CNC12CC=CCC1c1ccccc1C2 (centres undefined),inhibition,[1],0%
same,logD,[2],0.04
NC12CCC(CO)CC1Cc1ccccc12 (centres undefined),logD,[2],0.86
same,IC50,Glutamate NMDA receptor [3],253 nM
CN[C@]12CCCC[C@H]1Cc1ccccc12,IC50,Rattus norvegicus [5],120 nM
same,ED50,Mus musculus,0.1 mg/kg
same,logD,[2],0.33
same,IC50,Glutamate NMDA receptor [3],9.9 nM
c1ccc(CNC23CCCC2Cc2ccccc23)cc1 (centres undefined),inhibition,[1],4%
CCNC12CCCCC1Oc1ccccc12 (centres undefined),IC50,Rattus norvegicus [4],1800 nM
same,ED50,Mus musculus,1.5 mg/kg
same,IC50,Glutamate NMDA receptor [3],141 nM
CNCC12CCCCC1c1ccccc1C2 (centres undefined),inhibition,[1],0%
CNC12CCCCC1Sc1ccccc12 (centres undefined),IC50,Rattus norvegicus [4],210 nM
same,ED50,Mus musculus,0.41 mg/kg
same,IC50,Glutamate NMDA receptor [3],11.3 nM
NC12CCCCC1c1ccccc1C2 (centres undefined),inhibition,[1],0%
same,logD,[2],0.3
C[C@]12N[C@H](Cc3ccccc31)c1ccccc12 [DIZOCILPINE],IC50,Rattus norvegicus [5],54 nM
same,ED50,Mus musculus,0.22 mg/kg
same,logD,[2],2.1
CNC12CCCCCC1Cc1ccccc12 (centres undefined),IC50,Rattus norvegicus [4],1200 nM
same,logD,[2],0.66
same,IC50,Glutamate NMDA receptor [3],113 nM
CNC12c3ccccc3CC1CCCC2C (centres undefined),IC50,Rattus norvegicus [4],390 nM
same,ED50,Mus musculus,0.8 mg/kg
same,IC50,Glutamate NMDA receptor [3],79 nM
CNC12CCC(CO)CC1Cc1ccccc12 (centres undefined),logD,[2],0.17
same,IC50,Glutamate NMDA receptor [3],3940 nM
CN[C@@]12CC[C@@H](CN)C[C@@H]1Cc1ccccc12,IC50,Rattus norvegicus [4],765000 nM
same,logD,[2],-1.42
same,IC50,Glutamate NMDA receptor [3],1.84 nM
CNC12CCCCC1Cc1ccsc12 (centres undefined),ED50,Mus musculus,1.1 mg/kg
same,IC50,Glutamate NMDA receptor [3],66 nM
CC1CCCC2Cc3ccccc3C12N (centres undefined),IC50,Glutamate NMDA receptor [3],159 nM
CCNC12CCCCC1Cc1c(C)cccc12 (centres undefined),IC50,Glutamate NMDA receptor [3],323 nM
NC12CCCC1Cc1ccccc12 (centres undefined),logD,[2],-0.28
same,IC50,Glutamate NMDA receptor [6],5 nM
C=C1c2ccccc2C2(N)CCCCC12 (centres undefined),inhibition,[1],4%
N[C@]12CCCC[C@H]1Cc1ccccc12,IC50,Rattus norvegicus [5],510 nM
same,ED50,Mus musculus,0.61 mg/kg
same,IC50,Glutamate NMDA receptor [3],13.4 nM
CN[C@@]12CCCC[C@@H]1Cc1ccccc12.CN[C@]12CCCC[C@H]1Cc1ccccc12,IC50,Rattus norvegicus [5],100 nM
same,ED50,Mus musculus,0.58 mg/kg
same,logD,[2],0.54
same,IC50,Glutamate NMDA receptor [3],30 nM
c1ccc(C2(N3CCCCC3)CCCCC2)cc1 [PHENCYCLIDINE],IC50,Rattus norvegicus [5],200 nM
same,ED50,Mus musculus,0.55 mg/kg
same,logD,[2],3.63
same,IC50,Glutamate NMDA receptor [3],36.5 nM
CN[C@@]12CCCC[C@@H]1Cc1ccccc12,IC50,Rattus norvegicus [5],2550 nM
same,ED50,Mus musculus,10 mg/kg
same,logD,[2],0.43
same,IC50,Glutamate NMDA receptor [3],107 nM
NCC12CCCCC1c1ccccc1C2 (centres undefined),inhibition,[1],1%

# Source: ChEMBL document CHEMBL1126612, “Synthesis and pharmacological evaluation of hexahydrofluorenamines as noncompetitive antagonists at the N-methyl-D-aspartate receptor” (J Med Chem, 1993)
